# Peptide text beside a SMILES is read from it. * marks the point of attachment. Cbz = O=C(OCc1ccccc1)*
# What was measured:
# [1] = system: T1, proteasomes isolated from rabbit reticulocytes; type: biochemical; conditions: Lineweaver-Burk plot analysis
# T1 construct: other: Lineweaver-Burk plot analysis; other: at the Fa 10; other: at the Fa 25; other: at the Fa 50
# Description: (§1) Data represent the mean±SD.
# (§2) After incubation, cleavage of the fluorogenic substrate Z-Leu-Leu-Glu-AMC was measured as above. […] The approximate binding sites of bortezomib that is located inside the catalytic chamber are also indicated.
# (§3) Proteasome complexes were isolated from rabbit reticulocytes and T. acidophilum as described previously.
# (§4) Data are expressed as mean values±SD. The statistical significance was computed with Student's t-test. […] Isobologram analysis was performed with CalcuSyn software (Biosoft, Ferguson, Mo., and Cambridge, UK). A combination index (CI) less than 1.0 indicated synergism.
# THP1/BTZ50 [2] = conditions: data from Oerlemans et al, 2008; cited from earlier work
# THP1/BTZ100 [3] = conditions: data from Oerlemans et al, 2008; cited from earlier work
# THP1/BTZ500 [4] = conditions: data from Oerlemans et al, 2008; cited from earlier work
# THP1/BTZ200 [5] = conditions: data from Oerlemans et al, 2008; cited from earlier work
# THP1/WT = conditions: data from Oerlemans et al, 2008; cited from earlier work
# proteasome = conditions: non-competitive inhibitor binding the alpha subunits [8]; cited from earlier work
# [6] = system: NFkappaB p50 subunit DNA binding in MDAY-D2 cells; experiment: NFkappaB activity (p50 DNA-binding ELISA); type: cell-based, murine; conditions: 24 hours 5AHQ, with and without TNF-alpha
# Description: NFkappaB activity was measured using the Trans-AM NFkappaB p65 transcription factor assay kit (Active Motif, Carlsbad, Calif.) according to the manufacturer's instructions. […] Nuclear extracts were prepared using the Nuclear Extract kit (Active Motif, Carlsbad, Calif.) according to the manufacturer's instructions. Binding of the NFkappaB transcription factor subunit p50 to the DNA consensus sequence (5′-[…]-3′) cross linked to 96-well plates was measured using enzyme-linked immunosorbent assay (ELISA) technology with absorbance reading according to the manufacturer's protocol.
# [7] = system: chymotrypsin-like activity of the proteasome in leukemia, myeloma, and solid tumor cell lines; experiment: proteasome activity after treatment of intact cells (Suc-LLVY-AMC); conditions: intact cells treated 24 hours, then lysed
# Description: A) Myeloma, leukemia, and solid tumor cell lines were treated with increasing concentrations of 5AHQ. Twenty hours after treatment, cells were lysed and the preferential chymotrypsin-like substrate Suc-LLVY-AMC was added. The generation of free AMC was measured over time with a fluorescent spectrophotometric plate reader as described in the Materials and Methods. Data represent the mean±SD maximal rate of proteasomal activity expressed as a percentage of buffer treated cells.
# To measure the effects of 5AHQ on the enzymatic activity of the proteasome in intact cells, solid tumor, leukemia and myeloma cell lines were treated with increasing concentrations of 5AHQ. Twenty hours after treatment, cells were lysed in 50 mM HEPES pH 7.5, 150 mM NaCl and 1% Triton X-100, and 2 mM ATP. To equal protein concentrations, the proteasome fluorogenic substrate, Suc-LLVY-AMC, was added and the generation of free AMC was measured over time with a fluorescent spectrophotometric plate reader as above.
# Leukemia, myeloma, and solid tumor cell lines were treated with increasing concentration of 5AHQ for 24 hours. After treatment, cells were harvested, lysed, and the chymotrypsin-like activity of the proteasome was measured by monitoring the rate of cleavage of the fluorescent substrate Suc-LLVY-AMC.
# LD50 in mice = conditions: mouse, in vivo
# THP1/BTZ500 [8] = experiment: cells; conditions: Homo sapiens, THP-1, 72 h, read-out: IC50 5AHQ
# Description: (§5) Cell lines. Human multiple myeloma (MM) and solid tumor cell lines were grown in Iscove's Modified Dulbecco's Medium (IMDM). […] These cells were maintained in bortezomib up to at least 7 days prior to the experiment. Media were supplemented with 10% fetal calf serum (FCS), 100 ug/mL penicillin, and 100 units/mL streptomycin (all from Hyclone, Logan, Utah).
# (§6) After incubation, cell viability was measured by trypan blue staining.
# leukemia cell lines = experiment: cell viability MTS assay, leukemia cell lines; type: cell-based, human and murine; conditions: 72 hours, in 6/10 leukemia cell lines
# THP1/BTZ200 [9] = experiment: cells; conditions: Homo sapiens, THP-1, 72 h, read-out: IC50 5AHQ
# Description: as §5, §6
# [10] = target: T2, α7-α7 half-proteasome of the T. acidophilum 20S proteasome (Thermoplasma acidophilum, UniProt P25156); experiment: inhibitor binding to the proteasome by NMR; conditions: 50° C., methyl-labelled α7-α7
# T2 construct: His-tag (N, cleaved yes); made in house
# Source text: The 20S proteasome from T. acidophilum was produced as described previously with the alpha and beta subunits co-expressed from 2 different plasmids (where the beta subunit carried a C terminal His-tag). Samples of the half-proteasome comprised of pairs of alpha-rings, a7-a7, were produced by overexpression of the a subunit that carried a N-terminal cleavable His-tag that was removed during purification. Methyl labelling of proteins for NMR analysis was achieved by growing cells in D2O based minimal medium with ^2H-^12C glucose as the carbon source. One hour before induction of protein expression, alpha-ketobutyric acid (60 mg/L) and alpha-ketoisovaleric acid (100 mg/L; only one of the two isopropyl methyls was ^13CH3 labeled, the other ^12CD3) were added to introduce ^13CH3 methyl groups in Ile, Leu and Val. Proteins were purified by Ni-NTA affinity resin and size exclusion chromatography.
# NMR experiments with the (a7-a7) proteasome were performed on Varian 600 MHz spectrometers at 50° C. on samples that were ˜[…], 100% D2O, 25 mM potassium phosphate pH 6.8, 50 mM NaCl, 1 mM EDTA, 0.03% NaN3 and 2 mM DTT similar to previously described. NMR data was processed and analyzed with the nmrPipe/nmrDraw software package.
# THP1/BTZ100 [11] = experiment: cells; conditions: Homo sapiens, THP-1, 72 h, read-out: IC50 5AHQ
# Description: as §5, §6
# [12] = target: T3, proteasome isolated from archaebacterium T. acidophilum (Thermoplasma acidophilum, UniProt P25156); experiment: enzymatic activity of purified T. acidophilum proteasome (Suc-LLVY-AMC cleavage); type: biochemical
# T3 construct: made in house
# Source text: Data represent the mean±SD. A Lineweaver-Burk plot is presented as a fit to a noncompetitive model of inhibition.
# as §3
# [13] = system: CEM cells over-expressing the multidrug resistant pumps Pgp, BCRP, or MRP1; experiment: cell death in bortezomib-resistant CEM cells; type: cell-based; conditions: CEM cells resistant to bortezomib by over-expression of Pgp
# solid tumor cell lines = experiment: cell viability MTS assay, solid tumor cell lines; type: cell-based, human; conditions: 72 hours, in 3/10 solid tumor cell lines
# [14] = system: normal hematopoietic cells; experiment: viability of normal hematopoietic cells (PBSC); type: cell-based, human
# Description: Forty-eight hours after treatment, cell viability was measured by the MTS assay. Data represent the mean±SD percent viability compared to buffer treated cells. D) Primary acute myeloid leukemia (AML) blasts (n=4), CLL (n=5) or normal peripheral blood stem cells (PBSC) (n=3) were obtained from the peripheral blood of consenting patients with AML, CLL or donors of PBSC for allotransplantation, respectively. […] Data represent the mean±SD percentage of viable cells compared to buffer treated cells.
# Primary cells. Primary human acute myeloid leukemia (AML) and chronic lymphocytic leukemia (CLL) samples were isolated from peripheral blood samples from consenting patients with AML and CLL, respectively, who had at least 80% malignant cells among the mononuclear cells in their peripheral blood. Primary normal hematopoietic cells were obtained from healthy volunteers donating peripheral blood mononuclear stem cells (PBSC) for allotransplantation. […]
# Cell viability was assessed by the MTS (Promega, Madison, Wis.) and Alamar Blue Fluorescence assays (Invitrogen, Carlsbad, Calif.) according to manufacturer's instructions and as previously described [14]. Apoptosis was measured by Annexin V-FITC (Biovision Research Products, Mountain View, Calif.) staining and flow cytometry according to manufacturer's instructions and as previously described.
# THP1/BTZ50 [15] = experiment: cells; conditions: Homo sapiens, THP-1, 72 h, read-out: IC50 5AHQ
# Description: as §5, §6
# [16] = system: OCI-AML2 or K562 human leukemia cells, MDAY-D2 murine leukemia cells in NOD-SCID mice; experiment: mouse models of leukemia (xenograft), oral 5AHQ; type: in vivo
# Description: Sublethally irradiated NOD/SCID mice were injected subcutaneously with U937 and K562 leukemia cells or intraperitoneally with MDAY-D2 leukemia cells. […] Eight (MDAY-D2) or ten (U937 and K562) days after tumor inoculation, mice were sacrificed, the subcutaneous or intraperitoneal tumor excised, and the weight of the tumors measured. The bars represent the median of the population. p values reflect the Mann-Whitney non-parametric test.
# MDAY-D2 murine leukemia cells (5×10^5) were injected intraperitoneally into sublethally irradiated (3.5 Gy) NOD/SCID mice (Ontario Cancer Institute, Toronto, Canada). […] Mice were sacrificed, and the weight and volume of the intraperitoneal tumors were measured.
# K562 leukemia cells (3×10^6) or U937 leukemia cells (2×10^6) were injected subcutaneously (s.c.) into the flank of sublethally irradiated NOD/SCID mice. […] Mice were then sacrificed, and the weight of the tumors was measured.
# Sublethally irradiated NOD-SCID mice were injected subcutaneously with OCI-AML2 or K562 human leukemia cells or intraperitoneally with MDAY-D2 murine leukemia cells.
# LP1 myeloma cell lines = experiment: ubiquitinated proteins by immunoblotting; type: cell-based, human; conditions: 24 hours after treatment
# Description: Whole cell lysates were prepared from myeloma cells as described previously. Briefly, cells were washed with phosphate-buffered saline (PBS, pH 7.4) and re-suspended in lysis buffer [10 mM Tris (pH 7.4), 150 mM NaCl, 0.1% Triton X-100, 0.5% sodium deoxycholate, and 5 mM EDTA] containing protease inhibitors (Complete tablets, Roche, Indianapolis, Ind.). Protein concentrations were determined by the Bradford assay. Equal amounts of protein were subjected to SDS-PAGE gels followed by transfer to nitrocellulose membranes. Membranes were probed with rabbit anti-human polyclonal anti-ubiquitin (1:1000 v/v) (Calbiochem, San Diego, Calif.), or mouse monoclonal anti-beta actin (1:10,000 v/v) (Sigma) followed by secondary horseradish peroxidase (HRP)-conjugated goat anti-mouse (1:10,000 v/v) or anti-rabbit IgG (1:5,000 v/v) (Amersham Bioscience UK, Little Chalfont, England). Detection was performed by the Enhanced Chemical Luminescence (ECL) method (Pierce, Rockford, Ill.).
# Twenty four hours after treatment, the abundance of ubiquitinated proteins in the cells was measured by immunoblotting.
# [17] = system: bortezomib-resistant THP1 leukemia cells (β5 proteasome subunit mutated and over-expressed); conditions: 72 hours, trypan blue staining
# Description: as §5, §6
# myeloma cell lines = experiment: cell viability MTS assay, myeloma cell lines; type: cell-based, human; conditions: 72 hours, in 7/7 myeloma cell lines
# [18] = system: proteasome in protein extracts from MDAY-D2 leukemia cells; experiment: proteasome activity in cell extracts (Suc-LLVY-AMC); type: biochemical, murine; conditions: added to extracts derived from MDAY-D2 leukemia cells
# Description: A) Protein extracts from MDAY-D2 leukemia cells were treated with aliquots of compounds from a focused chemical library (final concentration 5 μM).
# [19] = target: T4, proteasomes isolated from rabbit reticulocytes; type: biochemical; conditions: Lineweaver-Burk plot analysis, noncompetitive model
# T4 construct: Ki
# Description: as §1, §2, §3, §4
# T3 sequence (P25156 whole entry): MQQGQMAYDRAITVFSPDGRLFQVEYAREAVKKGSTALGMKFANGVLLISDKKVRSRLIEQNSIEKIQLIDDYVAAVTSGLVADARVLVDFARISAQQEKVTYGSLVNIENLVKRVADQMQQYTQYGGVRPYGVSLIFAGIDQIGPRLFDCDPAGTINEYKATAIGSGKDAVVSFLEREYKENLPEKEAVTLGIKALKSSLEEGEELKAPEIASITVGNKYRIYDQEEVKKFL
# T3 sequence (P28061 9-211 partner): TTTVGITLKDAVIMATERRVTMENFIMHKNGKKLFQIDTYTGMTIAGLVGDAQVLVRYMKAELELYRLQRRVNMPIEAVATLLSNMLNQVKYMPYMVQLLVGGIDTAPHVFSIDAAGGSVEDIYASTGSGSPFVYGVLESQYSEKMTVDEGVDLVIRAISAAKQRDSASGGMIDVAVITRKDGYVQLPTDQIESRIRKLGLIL
# T2 sequence (P25156 whole entry): as the sequence (P25156 whole entry) above
smiles,measurement,setting,value
"CC(C)C[C@@H](C=O)NC(=O)[C@H](CC(C)C)NC(=O)[C@H](CC(C)C)NC(=O)OCc1ccccc1 [MG132, reference compound] (Cbz-Leu-Leu-Leu-aldehyde)",mode of inhibition,[1],competitively
"CC(C)C[C@H](NC(=O)[C@H](Cc1ccccc1)NC(=O)c1cnccn1)B(O)O [bortezomib, [(1R)-3-Methyl-1-[[(2S)-1-oxo-3-phenyl-2-[(pyrazinylcarbonyl)amino]propyl]amino]butyl]boronic acid]",RF BTZ (Resistance Factor),THP1/BTZ50 [2],45
same,RF BTZ (Resistance Factor),THP1/BTZ100 [3],79
same,RF BTZ (Resistance Factor),THP1/BTZ500 [4],237
same,RF BTZ (Resistance Factor),THP1/BTZ200 [5],129
same,RF BTZ (Resistance Factor),THP1/WT,1
CCN(CC)CCCC(C)Nc1ccnc2cc(Cl)ccc12 (centres unmarked) [chloroquine],proteasome inhibition relative to 5AHQ,proteasome,much weaker proteasome inhibitor than 5AHQ
"Nc1ccc(O)c2ncccc12 [5AHQ, 5-amino-8-hydroxyquinoline]",NFkappaB activity,[6],inhibited basal and TNF-alpha stimulated NFkappaB activity
same,rate of Suc-LLVY-AMC cleavage,[7],inhibited the rate of Suc-LLVY-AMC cleavage
same,LD50,LD50 in mice,> 1000 mg/kg
same,IC50,THP1/BTZ500 [8],6.6 ± 0.9 µM
same,LD50,leukemia cell lines,< 5 µM
same,IC50,THP1/BTZ200 [9],6.4 ± 0.7 µM
same,NMR spectral changes on binding,[10],"clear spectral changes localized to residues Ile159, Val113, Val87, Val82, Leu112, Val89, Val134, Val24 and Leu136"
same,IC50,THP1/BTZ100 [11],6.3 ± 0.4 µM
same,Ki,[12],161 ± 4 µM
same,mode of inhibition,[12]; Lineweaver-Burk plot,non-competitive kinetics
same,sensitivity to 5AHQ-induced cell death,[13],remained equally sensitive to 5AHQ-induced cell death
same,LD50,solid tumor cell lines,< 5 µM
same,concentration up to which not cytotoxic,[14],> 62.5 µM
same,IC50,THP1/BTZ50 [15],6.6 ± 0.4 µM
same,decrease of tumor weight and volume compared to control,"[16]; 50 mg/kg/day by oral gavage, all 3 mouse models",at least 50%
same,weight loss or gross organ toxicity,"[16]; mouse, in vivo",without causing weight loss or gross organ toxicity
same,amount of ubiquitinated protein,LP1 myeloma cell lines,increased the amount of ubiquitinated protein
same,sensitivity to 5AHQ,[17],remained essentially fully sensitive to 5AHQ
same,LD50,myeloma cell lines,< 5 µM
same,inhibition of the enzymatic activity of the proteasome,[18],inhibited the enzymatic activity of the proteasome at low micromolar concentrations
same,mode of inhibition,[1],noncompetitively
same,Ki,[19],2.1 ± 0.18 µM
